Test results taken from the NIST ThermoML archive (doi:10.1021/je201053v).
Numbers after ± are expanded uncertainties.

Details: Liquid; for mass density: 293.15 K, 101.33 kPa, Vibrating tube method

Row | SMILES | mass density [kg/m3] | further results
1 | Cc1ccccc1C [1,2-dimethylbenzene] | 879.68 ± 0.93 | vapor or sublimation pressure (417.58 K): 101.33 ± 1.9 kPa
2 | Cc1cccc(C)c1 [1,3-dimethylbenzene] | 864.11 ± 0.91 | vapor or sublimation pressure (412.27 K): 101.33 ± 1.4 kPa
3 | Cc1ccc(C)cc1 [1,4-dimethylbenzene] | 861.21 ± 0.91 | vapor or sublimation pressure (411.51 K): 101.33 ± 1.9 kPa
4 | CCCCO [butan-1-ol] | 809.5 ± 0.24 | vapor or sublimation pressure (390.85 K): 101.33 ± 1.3 kPa
5 | CCc1ccccc1 [ethylbenzene] | 866.54 ± 0.58 | vapor or sublimation pressure (409.27 K): 101.33 ± 1.3 kPa
